IC50 data for 23 compounds are collected here from patent publication US10676471B2, “Cycloalkyl-linked diheterocycle derivatives” (Pfizer Inc., priority 2014, dated 2020).

For this assay, the system named is BT20 Cell. Nature of the assay: Cancer Cell Lysate Total L-Glutamate Assay. The note with it: Homo sapiens, BT-20, 2 h, total L-glutamate in cell lysate, BT20 cells, 2 hour incubation with test compound. It counts as cell-based. As to the method: Cancer Cell Lysate Total L-Glutamate Assay
Cancer cell lines (BT20, HCT116, SKOV3, HCC70, SUM149, MDA-MB-231, etc.) were plated in 96 well plates and were used for the total L-glutamate assay when the monolayer was ca. 80% confluent. The media was changed and fresh media containing L-glutamine was added to the 96 well plates, just before incubation of the cells with test compound. The test compound was diluted in 100% DMSO using a two-fold or three-fold serial dilution. Small volumes of the dilutions of test compound were added to the 96 well plates so the final DMSO concentration was 0.5% v/v in the cell culture medium. The cells were incubated at 37° C., 5% CO2, and 95% air for 2 hours. Following the 2 hour incubation, the cells were washed with water 2 times. After the last water wash, 100 μL of 50 mM Tris-HCl pH 7.4 and 0.01% Tween-20 was added to each well and the plate was frozen at −80° C. The 96 well plate was frozen and thawed a total of 3 times and then sonicated for 5 min at 4° C. in a bath sonicator. Following sonication, the 96 well plate was centrifuged for 5 min at 1000 rpm and 10 μL of the supernatant was transferred to a 384 well assay plate.
Total L-glutamate (L-glutamic acid) in the cell lysis supernatant was detected using glutamate oxidase, horseradish peroxidase and Amplex Red reagent (10-acetyl-3,7-dihydroxy phenoxazine, Invitrogen # A22177). In this assay, L-glutamate was oxidized by glutamate oxidase to produce alpha-ketoglutarate (2-oxopentane dioic acid), NH3 and H202. The H2O2 (hydrogen peroxide) was used by horseradish peroxidase (HRP) to oxidize the Amplex Red Reagent to resorufin which is a fluorescent molecule. When resorufin is excited with light with a wavelength 530-560 nm, it emits light at approximately 585 nm. For detection of total L-glutamate in 10 μL of lysate, 15 μL of an enzyme mixture was added to each well of the 384 well assay plate. The enzyme mixture consisted of 50 mM Tris-HCl pH 7.4, 0.01% Tween-20, 50 μM Amplex Red reagent (final concentration), 0.04 U/mL L-glutamate oxidase (final concentration), and 0.125 U/mL HRP (final concentration). The 384 well assay plate was incubated at room temperature for 5 min and then the fluorescence intensity of each well was measured at 585 nm using a 530-560 nm excitation wavelength in a plate based fluorimeter such as an LJL Analyst or a Tecan Infinite plate reader. Standard curves were constructed for this assay using dilutions of a L-glutamate standard. IC50 were calculated by plotting the relative fluorescent units vs log of the inhibitor concentration and fitting the data to the four parameter logistic equation.
Reference: Chapman J. and Zhou M. (1999) Microplate-based fluorometric methods for the enzymatic determination of I-glutamate: application in measuring I-glutamate in food samples. Analytica Chim Acta 402:47-52.

pIC50: −log10 of the molar value.

As usually defined, the pIC50 is the IC50 on a negative log10 scale, so that one unit is a factor of ten. Low values mean a large IC50, high ones a small IC50. `O=C(Cc1ccccn1)Nc1ccc(CC2CCC(c3nnc(NC(=O)Cc4ccccn4)s3)C2)nn1` (racemic) [Example 70, (rac)-2-(pyridin-2-yl)-N-{5-[(cis)-3-({6-[(pyridin-2-ylacetyl)amino]pyridazin-3-yl}methyl)cyclopentyl]-1,3,4-thiadiazol-2-yl}acetamide]: the pIC50 is 9.70.
Consider `CC(C)C(=O)Nc1ccc(CC2CCC(c3nnc(NC(=O)Cc4ccccn4)s3)C2)nn1` (racemic) [Example 76, (rac)-2-methyl-N-(6-{[(cis)-3-{5-[(pyridin-2-ylacetyl)amino]-1,3,4-thiadiazol-2-yl}cyclopentyl]methyl}pyridazin-3-yl)propanamide], for which the pIC50 was 8.52.
On to `O=C(Cc1ccccn1)Nc1nnc(CC2CCC(c3nnc(Nc4ncccn4)s3)C2)s1` (racemic) [Example 83, (rac)-2-(pyridin-2-yl)-N-[5-({(cis)-3-[5-(pyrimidin-2-ylamino)-1,3,4-thiadiazol-2-yl]cyclopentyl}methyl)-1,3,4-thiadiazol-2-yl]acetamide], for which the pIC50 was 8.62.
In the case of `O=C(Cc1ccccn1)Nc1nnc(CC2CCC(c3nnc(Nc4cnccn4)s3)C2)s1` (racemic) [Example 87, (rac)-N-[5-({(cis)-3-[5-(pyrazin-2-ylamino)-1,3,4-thiadiazol-2-yl]cyclopentyl}methyl)-1,3,4-thiadiazol-2-yl]-2-(pyridin-2-yl)acetamide], the pIC50 is 8.12. This pIC50 lies 0.50 log units lower than the previous one.
The compound `Cn1ccc(Nc2nnc(C3CCC(Cc4nnc(NC(=O)Cc5ccccn5)s4)C3)s2)n1` (racemic) [Example 88, (rac)-N-(5-{[(cis)-3-{5-[(1-methyl-1H-pyrazol-3-yl)amino]-1,3,4-thiadiazol-2-yl}cyclopentyl]methyl}-1,3,4-thiadiazol-2-yl)-2-(pyridin-2-yl)acetamide] gave a pIC50 of 7.89.
The value for `CC(C)C(=O)Nc1nnc(C2CC3(C2)CC(c2nnc(NC(=O)C(C)C)s2)C3)s1` (racemic) [Example 94, (rac)-N,N′-(spiro[3.3]heptane-2,6-diyldi-1,3,4-thiadiazole-5,2-diyl)bis(2-methylpropanamide)] was 8.07; that for `Cn1ccc(CC(=O)Nc2nnc(C3CC4(C3)CC(c3nnc(NC(=O)Cc5ccn(C)n5)s3)C4)s2)n1` (racemic) [Example 96, (rac)-N,N-(spiro[3.3]heptane-2,6-diyldi-1,3,4-thiadiazole-5,2-diyl)bis[2-(1-methyl-1H-pyrazol-3-yl)acetamide]] was 9.52.
In the case of `O=C(Cc1ccccn1)Nc1ccc(CC2CCC(c3nnc(NC(=O)C[C@H]4CCCO4)s3)C2)nn1` (mixture of isomers) [Example 129, (rac)-2-(pyridin-2-yl)-N-(6-{[(cis)-3-(5-{[(2R)-tetrahydrofuran-2-ylacetyl]amino}-1,3,4-thiadiazol-2-yl)cyclopentyl]methyl}pyridazin-3-yl)acetamide], the pIC50 was 8.66.
With `CC(C)C(=O)Nc1nnc(C2CC3(CC(c4nnc(NC(=O)Cc5ccccn5)s4)C3)C2)s1` (racemic) [Example 135, 2-methyl-N-[5-(6-{5-[(pyridin-2-ylacetyl)amino]-1,3,4-thiadiazol-2-yl}spiro[3.3]hept-2-yl)-1,3,4-thiadiazol-2-yl]propanamide], the negative logarithm of the IC50 (pIC50) is 8.68. The pIC50 values of the last two compounds are within 0.2 log units of each other.
As for `CC(C)C(=O)Nc1nnc(C2CC3(CC(c4nnc(NC(=O)Cc5ccn(C)n5)s4)C3)C2)s1` (racemic) [Example 136, 2-methyl-N-{5-[6-(5-{[(1-methyl-1H-pyrazol-3-yl)acetyl]amino}-1,3,4-thiadiazol-2-yl)spiro[3.3]hept-2-yl]-1,3,4-thiadiazol-2-yl}propanamide], the pIC50 is 8.72.
In turn, `Cn1ccc(C(=O)Nc2nnc(C[C@H]3CC[C@@H](c4nnc(NC(=O)Cc5ccccn5)s4)C3)s2)n1` (racemic) [Example 137, (rac)-1-methyl-N-(5-{[(cis)-3-{5-[(pyridin-2-ylacetyl)amino]-1,3,4-thiadiazol-2-yl}cyclopentyl]methyl}-1,3,4-thiadiazol-2-yl)-1H-pyrazole-3-carboxamide] showed a pIC50 of 8.36.
`O=C(Cc1ccccn1)Nc1nnc(C2CCC(c3nnc(NC(=O)Cc4ccccn4)s3)C2)s1` (racemic) [Example 138, N,N′-[cyclopentane-1,3-diyldi-1,3,4-thiadiazole-5,2-diyl]bis[2-(pyridin-2-yl)acetamide]]: the pIC50 was 6.92.
Then `O=C(Cc1ccccn1)Nc1nnc(C2CCCC(c3nnc(NC(=O)Cc4ccccn4)s3)C2)s1` (racemic) [Example 139, N,N′-[cyclohexane-1,3-diyldi-1,3,4-thiadiazole-5,2-diyl]bis[2-(pyridin-2-yl)acetamide]], with 6.71; and `O=C(Cc1ccccn1)Nc1nnc(C2CCC(c3nnc(NC(=O)Cc4ccccn4)s3)CC2)s1` (racemic) [Example 140, N,N′-(cyclohexane-1,4-diyldi-1,3,4-thiadiazole-5,2-diyl)bis[2-(pyridin-2-yl)acetamide]], with 6.42; and `CC(=O)Nc1nnc(C2CC3(C2)CC(c2nnc(NC(C)=O)s2)C3)s1` (racemic) [Example 141, N,N′-(spiro[3.3]heptane-2,6-diyldi-1,3,4-thiadiazole-5,2-diyl)diacetamide], with 6.53.
For `O=C(Cn1cccn1)Nc1nnc(C[C@H]2CC[C@@H](c3nnc(NC(=O)Cc4ccccn4)s3)C2)s1` (racemic) [Example 142, (rac)-2-(1H-pyrazol-1-yl)-N-(5-{[(cis)-3-{5-[(pyridin-2-ylacetyl)amino]-1,3,4-thiadiazol-2-yl}cyclopentyl]methyl}-1,3,4-thiadiazol-2-yl)acetamide], the pIC50 is 7.88.
The compound `O=C(CCn1cccn1)Nc1nnc(C[C@H]2CC[C@@H](c3nnc(NC(=O)Cc4ccccn4)s3)C2)s1` (racemic) [Example 143, (rac)-3-(1H-pyrazol-1-yl)-N-(5-{[(cis)-3-{5-[(pyridin-2-ylacetyl)amino]-1,3,4-thiadiazol-2-yl}cyclopentyl]methyl}-1,3,4-thiadiazol-2-yl)propanamide] gave a pIC50 of 8.38.
In turn, `O=C(Cc1ccccn1)Nc1nnc([C@@H]2CC[C@H](Cc3nnc(NC(=O)c4ccccc4F)s3)C2)s1` (racemic) [Example 144, (rac)-2-fluoro-N-(5-{[(cis)-3-{5-[(pyridin-2-ylacetyl)amino]-1,3,4-thiadiazol-2-yl}cyclopentyl]methyl}-1,3,4-thiadiazol-2-yl)benzamide] showed a pIC50 of 9.15.
As to `CC(=O)Nc1nnc([C@@H]2CC[C@H](Cc3nnc(NC(=O)Cc4cscn4)s3)C2)s1` (racemic) [Example 145, (rac)-N-[5-({(cis)-3-[5-(acetylamino)-1,3,4-thiadiazol-2-yl]cyclopentyl}methyl)-1,3,4-thiadiazol-2-yl]-2-(1,3-thiazol-4-yl)acetamide], the pIC50 was 8.15.
In turn, `CC(=O)Nc1nnc([C@@H]2CC[C@H](Cc3nnc(NC(=O)Cc4ccn(C)n4)s3)C2)s1` (racemic) [Example 146, (rac)-N-[5-({(cis)-3-[5-(acetylamino)-1,3,4-thiadiazol-2-yl]cyclopentyl}methyl)-1,3,4-thiadiazol-2-yl]-2-(1-methyl-1H-pyrazol-3-yl)acetamide] had a pIC50 of 8.16.
Turning to `CC(=O)Nc1nnc([C@@H]2CC[C@H](Cc3nnc(NC(=O)c4ccccc4F)s3)C2)s1` (racemic) [Example 148, (rac)-N-[5-({(cis)-3-[5-(acetylamino)-1,3,4-thiadiazol-2-yl]cyclopentyl}methyl)-1,3,4-thiadiazol-2-yl]-2-fluorobenzamide], the pIC50 was 7.90.
As for `CC(=O)Nc1nnc([C@@H]2CC[C@H](Cc3nnc(NC(=O)Cc4cn5ccccc5n4)s3)C2)s1` (racemic) [Example 149, (rac)-N-[5-({(cis)-3-[5-(acetylamino)-1,3,4-thiadiazol-2-yl]cyclopentyl}methyl)-1,3,4-thiadiazol-2-yl]-2-(imidazo[1,2-a]pyridin-2-yl)acetamide], the pIC50 is 8.16. Against the preceding compound, the pIC50 is 0.26 log units higher.
`Cn1cnc(C(=O)Nc2nnc(C[C@H]3CC[C@@H](c4nnc(NC(=O)Cc5ccccn5)s4)C3)s2)c1` (racemic) [Example 150, (rac)-1-methyl-N-(5-{[(cis)-3-{5-[(pyridin-2-ylacetyl)amino]-1,3,4-thiadiazol-2-yl}cyclopentyl]methyl}-1,3,4-thiadiazol-2-yl)-1H-imidazole-4-carboxamide]: the pIC50 is 8.82.
